Assay results from patent US6291247A, “Methods of screening for factors that disrupt neurotrophin conformation and reduce neurotrophin biological activity” (priority 1996, dated 2001).

How the values were obtained:
NGF = target: T1, NGF (Mus musculus, UniProt P01139); test: NGF protomer crosslinking with BS3 (NGF conformation), metal ions; assay type: biochemical; conditions: for NGF monomer crosslinking by BS3: 0.1 nM 125I-NGF, CaEDTA together with Zn2+; for NGF Protomer Conformation (active/inactive): 100 μM
T1 construct: homodimer
T1 sequence (P01139 122-239): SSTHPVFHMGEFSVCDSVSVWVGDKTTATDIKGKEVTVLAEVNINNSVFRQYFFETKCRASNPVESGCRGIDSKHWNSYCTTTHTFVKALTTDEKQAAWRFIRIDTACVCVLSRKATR
Description: For crosslinking NGF […], 0.4 mM BS^3 was added to the mixture and incubated for 30 minutes at 25° C. […] For CD studies, NGF (50 μg/ml) was dissolved in 50 mM Tris-HCl buffer and spectra recorded using a computer controlled Jasco J-600 spectropolarimeter. Samples were acquired in the absence or presence of Zn^2+ (100 μM) at 22° C. in a 2 mm quartz cell averaged over eight scans. Modification of His residues by DEPC was carried out as previously described, where the molar excess of DEPC added and the extent of reaction was determined by evaluating the loss of binding activity of the modified product.

PC12 cells [1] = test: Toxicity to PC12 cells; assay type: cell-based, rat; conditions: for Toxicity to PC12 cells: in presence of serum, up to 100 μM; for Toxicity (PC12 cell viability): 100 μM
Description: (§1) Effects of divalent ions on NGF mediated survival and toxicity was evaluated using a colorimetric assay for the lysosomal enzyme acid phosphatase to determine cell number (Connolly, D. T., Knight, M. B., Harakas, N. K, Wittwer, A. J. & Feder, J. Determination of the number of endothelial cells in culture using an acid phosphatase assay. Anal. Biochem. 152, 136-140 (1986); Ueda, Y., Walsh, E., Nakanishi H. & Yoshida, K. A. colorometric assay method for the evaluation of neurotrophic activity in vitro. Neurosci. Lett. 165, 203-207 (1994)). […] To evaluate toxicity, the cells were seeded and maintained without NGF in RPMI with 10% heat inactivated donor horse serum and 5% fetal calf serum in the presence of additives. Loss in viable cell number was determined and expressed as a percent of control. NGF rescues PC12 cells from cell death in serum-free medium(Greene, L. A. Nerve growth factor prevents the death and stimulates neuronal differentiation of clonal PC12 pheochromocytoma cells in serum-free medium. J. Cell Biol. 78, 747-755 (1978)). NGF-dependent survival was assessed by harvesting PC12 cells in balanced salt solution followed with washing by 4 cycles of suspension and centrifugation in serum-free RPMI prior to seeding in 96 well plates. After incubation with additives, medium was removed from the wells and cells washed once with 200 μl PBS. Buffer containing 0.1M sodium acetate pH 5.5, 0.1% Triton X-100 and 10 mM p-nitrophenyl phosphate (Sigma 104 phosphatase substrate) was added to each well (100 μl). Plates were incubated at 37° C. for 3 hours. The reaction was stopped by the addition of 10 μl/well of 1N sodium hydroxide and the color development measured at 405 nm using a microplate reader. The relationship between cell number and enzyme activity was linear over the range 1000 to 15,000 cells.
(§2) To explore the ability of other transition metals to influence the biological activities of NGF, a series of cations known to mimic in certain respects the binding of zinc to proteins were tested. […] For this reason these ions were not tested in NGF- dependant growth phenomena. […] As these studies appeared to indicate potentially complex results upon metal ions binding to NGF, a receptor crosslinking system where specific receptor types could be identified was utilized.

DRG neurons = test: NGF-mediated neurite outgrowth of DRG neurons, metal ions; assay type: cell-based, chick; conditions: 100 μM
Description: Dissosiated cells enriched for sensory neurons were prepared from ED8 chick DRG as described (Dostaler, S. M. et al. Characterization of a distinctive motif of the low molecular weight neurotrophin receptor that modulates NGF-mediated neurite growth. Eur. J. Neurosci. 8, 870-879 (1996)). Neurons were seeded at a density of 800-1000 cells/well in Ham's F-12 containing 5% FCS and NGF at 10 pM into wells of Terasaki plates treated with polyysine. The cells were incubated with the indicated additives at 37° C. in a 5% CO2 atmosphere. The cells on the entire lower horizontal surface of the well were scored for neurite growth at 18-20 hours using an inverted microscope fitted with phase contrast optics. A neurite was scored if its caliber from the origin to terminal was constant and its length was equal to or greater than 1.5 cell body diameters. Neurite growth was corrected for background (no NGF).

TrkA receptor = test: NGF-dependent TrkA phosphorylation in PC12 cells, metal ions; assay type: cell-based, rat; conditions: for NGF-induced TrkA phosphorylation: 100 μM, PC12 cells
Description: Zn^2+ and/or other additives were allowed to equilibrate with NGF for 2 hours at 4° C. prior to addition of cells. PC12 cells were used at 10^6 cells/ml and incubated with 40 pM NGF for 15 minutes at 37° C. At the conclusion of the reaction, cells were washed, lysed in TBS containing 10% glycerol, 1% Triton X-100, 1 mM PMSF, 10 μg/ml aprotinin, 1 μg/ml leupeptin and 500 μM orthovanadate (lysis buffer, 10^8 cells/ml). The cellular debris was removed by centrifugation and the soluble proteins incubated with an anti-TrkA cytoplasmic domain antibody. Antibody complexes were isolated by incubating with immobilized protein G (Pierce Ultralink; 70 μl of a 50% slurry) for 2 hours at 4° C. The solid phase was washed extensively with lysis buffer and the pellet dissolved in SDS sample buffer. Proteins were resolved using 6% SDS PAGE and Western analysis performed with anti-phosphotyrosine 4G10 (UBI) visualized with ECL (Amersham).

p75^NTR and TrkA [2] = target: T2, p75^NTR and TrkA (Mus musculus, UniProt P01139); test: Binding of 125I-NGF to PC12 cells (p75NTR + TrkA); set-up: species or system rat; conditions: 120 min; for steady-state specific binding of 125I-NGF (0.5 nM) to p75NTR and TrkA: ± SEM; for Total Binding to PC12 cells: 125I-NGF
T2 construct: these cells express both NGF receptor types; endogenous in cells; host or cells: PC12 rat pheochromocytoma cells
T2 sequence (P01139 122-239): as above
Description: (§3) PC12 cells were grown in RPMI with 10% heat inactivated donor horse serum and 5% fetal calf serum. […] The tubes were incubated for 2 hr at 4° C. and 100 μl aliquots (providing triplicate data points for each sample) were transferred to 400 μl microcentrifuges containing 200 μl of 10% glycerol in HKR. Tubes were centrifuged for 2 minutes at 5,000 rpm, the tip containing the cell pellet cut off and radioactivity bound to the cells was determined.

p75^NTR and TrkA [3] = tested on: T3, p75^NTR and TrkA; test: Binding of 125I-NGF to PC12 cells (p75NTR + TrkA); set-up: species or system rat; conditions: for Inhibition of 125I-NGF binding: 100 μM, CaEDTA together with Zn2+
T3 construct: these cells express both NGF receptor types; endogenous in cells; host or cells: PC12 rat pheochromocytoma cells
T3 sequence (P01139 122-239): as above
Description: as §3

PC12 cells [4] = test: NGF-dependent survival of PC12 cells; assay type: cell-based, rat; conditions: for NGF-mediated survival of PC12 cells: serum-free, CaEDTA together with Zn2+; for Antagonism of NGF-dependent survival: high (1 nM) or low (50 pM) NGF
Description: as §1, §2

p75^NTR /TrkA [5] = target: p75^NTR /TrkA (Mus musculus, UniProt P01139); test: Receptor crosslinking of 125I-NGF with transition metal ions (receptor selectivity); assay type: binding; conditions: 100 μM
p75^NTR /TrkA (Mus musculus, UniProt P01139), sequence (P01139 122-239): as above
p75^NTR /TrkA (Mus musculus, UniProt P01139), sequence (P07174 30-425 partner): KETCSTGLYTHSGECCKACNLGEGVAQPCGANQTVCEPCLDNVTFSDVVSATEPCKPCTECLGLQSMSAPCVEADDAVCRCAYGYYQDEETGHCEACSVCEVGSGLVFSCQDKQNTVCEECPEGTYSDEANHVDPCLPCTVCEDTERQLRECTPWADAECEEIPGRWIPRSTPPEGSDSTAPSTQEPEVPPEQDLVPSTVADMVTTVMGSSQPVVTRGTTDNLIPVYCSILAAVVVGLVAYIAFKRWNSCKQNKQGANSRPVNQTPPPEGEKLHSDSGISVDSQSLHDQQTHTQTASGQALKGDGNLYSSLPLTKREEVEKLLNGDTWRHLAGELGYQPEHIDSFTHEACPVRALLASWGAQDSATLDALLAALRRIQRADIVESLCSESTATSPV
p75^NTR /TrkA (Mus musculus, UniProt P01139), sequence (P35739 33-799 partner): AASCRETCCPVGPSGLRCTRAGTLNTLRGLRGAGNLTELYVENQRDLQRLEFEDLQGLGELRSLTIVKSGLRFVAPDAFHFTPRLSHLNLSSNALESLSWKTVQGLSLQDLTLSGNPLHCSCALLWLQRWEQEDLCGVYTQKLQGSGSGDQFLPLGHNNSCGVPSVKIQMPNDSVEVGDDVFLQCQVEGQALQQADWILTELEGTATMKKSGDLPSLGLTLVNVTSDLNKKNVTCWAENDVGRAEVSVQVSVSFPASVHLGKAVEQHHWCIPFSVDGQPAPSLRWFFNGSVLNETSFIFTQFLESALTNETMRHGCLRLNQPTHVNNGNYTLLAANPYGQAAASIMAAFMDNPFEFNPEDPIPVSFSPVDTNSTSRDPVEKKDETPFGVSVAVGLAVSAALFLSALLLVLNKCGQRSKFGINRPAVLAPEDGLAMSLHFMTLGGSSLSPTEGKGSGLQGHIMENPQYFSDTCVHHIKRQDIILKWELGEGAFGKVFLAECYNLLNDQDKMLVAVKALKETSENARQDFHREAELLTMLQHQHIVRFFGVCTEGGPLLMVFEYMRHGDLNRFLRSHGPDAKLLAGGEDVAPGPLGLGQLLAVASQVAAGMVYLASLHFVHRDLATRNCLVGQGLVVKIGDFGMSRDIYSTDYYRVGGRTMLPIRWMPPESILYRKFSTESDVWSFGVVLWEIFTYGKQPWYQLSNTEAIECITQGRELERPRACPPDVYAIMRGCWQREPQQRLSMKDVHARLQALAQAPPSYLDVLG
p75^NTR /TrkA, sequence (P01139 122-239): as the sequence (P01139 122-239) above
p75^NTR /TrkA, sequence (P07174 30-425 partner): as the sequence (P07174 30-425 partner) above
p75^NTR /TrkA, sequence (P35739 33-799 partner): as the sequence (P35739 33-799 partner) above
Description: as §2

p75^NTR /TrkA [6] = test: as above; assay type: binding
Description: as §2

TrkA = tested on: T4, TrkA; test: Binding of 125I-NGF to TrkA on PC12 cells (p75NTR blocked with BDNF); set-up: species or system rat; conditions: 100 μM CaEDTA with 100 μM Zn2+; 40 nM BDNF; ± SEM; 120 min
T4 construct: Receptor cross-linking studies were performed on PC12 rat pheochromocytoma cells; endogenous in cells; host or cells: PC12 rat pheochromocytoma cells (ATCC CRL 1721)
T4 sequence (P01139 122-239): as the sequence (P01139 122-239) above
Description: as §3

Compound	NGF monomer crosslinking by BS3 (NGF)	Toxicity to PC12 cells (PC12 cells [1])	NGF-induced neurite extension (DRG neurons)	NGF-induced TrkA phosphorylation (TrkA receptor)	steady-state specific binding of 125I-NGF (0.5 nM) to p75NTR and TrkA (p75^NTR and TrkA [2]; 100 μM) [% Control]	Inhibition of 125I-NGF binding (p75^NTR and TrkA [3])	NGF-mediated survival of PC12 cells (PC12 cells [4]; 100 μM)	NGF Protomer Conformation (active/inactive) (NGF)	Toxicity (PC12 cell viability) (PC12 cells [1]) [% control]	Receptor Selectivity (p75NTR/TrkA) (p75^NTR /TrkA [5])	Blocking of NGF binding to TrkA and p75NTR in receptor crosslinking (p75^NTR /TrkA [6])	Total Binding to PC12 cells (p75^NTR and TrkA [2]; 100 μM) [% control]	Prevention of 125I-NGF binding to PC12 cells (p75^NTR and TrkA [3])	Antagonism of NGF-dependent survival (PC12 cells [4])	also measured
[Ca+2] [Ca^2+, reference compound]	no effect on crosslinking efficiency	not toxic	no effect	not detected	91 ± 7	neither Ca^2+ nor Mg^2+ displayed significant inhibition	no effect	–	–	–	–	–	–	–	–
[Au+3] [Au^3+]	–	–	–	–	–	–	–	active	102 ± 13	TrkA only	selective for blocking the binding of NGF to TrkA but did not prevent the binding of NGF to p75^NTR	107 ± 4	did not show appreciable inhibition	ability to antagonize the NGF-dependant survival	Survival @ 50 pM NGF (PC12 cells [4]; rat, pc12 cells, 100 µM): 0.1 ± 9 % control; Survival @ 1 nM NGF (PC12 cells [4]; rat, pc12 cells, 100 µM): -8 ± 5 % control
[Mg+2] [Mg^2+, reference compound]	no effect on crosslinking efficiency	not toxic	no effect	not detected	88 ± 13	neither Ca^2+ nor Mg^2+ displayed significant inhibition	no effect	–	–	–	–	–	–	–	–
[Ni+2] [Ni^2+]	–	–	–	–	–	–	–	inactive	100 ± 19	TrkA only	selective for blocking the binding of NGF to TrkA but did not prevent the binding of NGF to p75^NTR	69 ± 18	did not show appreciable inhibition	ability to antagonize the NGF-dependant survival	Effect on conformation of NGF in protomer crosslinking (NGF): did not appear to have an effect on the conformation; Survival @ 50 pM NGF (PC12 cells [4]; 100 μM, 50 pM NGF): 15 ± 13 % control; Survival @ 1 nM NGF (PC12 cells [4]; 100 μM, 1 nM NGF): 23 ± 10 % control
O=C([O-])CN(CCN(CC(=O)[O-])CC(=O)[O-])CC(=O)[O-].[Ca+2].[Na+].[Na+] [CaEDTA, reference compound]	prevented the Zn^2+ effects	–	–	Neither Ca^2+, Mg^2+ nor CaEDTA had a significant effect	–	Inhibitory effects of Zn^2+ could also be prevented	reversed	–	–	–	–	–	–	–	steady-state specific binding of 125I-NGF (0.5 nM) to TrkA (TrkA): 87 ± 13 % Control; Reversal of Zn2+ inhibition of TrkA phosphorylation (TrkA receptor; CaEDTA 100 μM with Zn2+ 100 μM): reversed by CaEDTA; steady-state specific binding of 125I-NGF (0.5 nM) to p75NTR and TrkA (p75^NTR and TrkA [2]; 100 μM CaEDTA with 100 μM Zn2+): 78 ± 19 % Control
